Test results published in US9067977B2, “Peptides derivatized with A-B-C-D- and their therapeutical use” (Novo Nordisk A/S, priority 2007, dated 2015).
Starred links: 1 amine or outer side, 2 acyl side, 3 side chain; linkers in the order of their positions; H or OH if unused. Residues, ends and D or L forms follow the SMILES beside them. Groups on a side chain read outwards from the residue. *: point of attachment. X1 = O=C(CCCCCCCCCCCCCCCc1nnn[nH]1)NS(=O)(=O)CCCC(=O)*; γGlu = O=C(O)[C@H](CCC(=O)[*:2])N[*:1]; Desaminohistidyl = O=C(CCc1c[nH]cn1)*; 12Ado = NCCCCCCCCCCCC(=O)O; AEEA = NCCOCCOCC(=O)O

Target: human serum albumin (HSA) (Homo sapiens, UniProt P02768)
Sequence (P02768 25-609): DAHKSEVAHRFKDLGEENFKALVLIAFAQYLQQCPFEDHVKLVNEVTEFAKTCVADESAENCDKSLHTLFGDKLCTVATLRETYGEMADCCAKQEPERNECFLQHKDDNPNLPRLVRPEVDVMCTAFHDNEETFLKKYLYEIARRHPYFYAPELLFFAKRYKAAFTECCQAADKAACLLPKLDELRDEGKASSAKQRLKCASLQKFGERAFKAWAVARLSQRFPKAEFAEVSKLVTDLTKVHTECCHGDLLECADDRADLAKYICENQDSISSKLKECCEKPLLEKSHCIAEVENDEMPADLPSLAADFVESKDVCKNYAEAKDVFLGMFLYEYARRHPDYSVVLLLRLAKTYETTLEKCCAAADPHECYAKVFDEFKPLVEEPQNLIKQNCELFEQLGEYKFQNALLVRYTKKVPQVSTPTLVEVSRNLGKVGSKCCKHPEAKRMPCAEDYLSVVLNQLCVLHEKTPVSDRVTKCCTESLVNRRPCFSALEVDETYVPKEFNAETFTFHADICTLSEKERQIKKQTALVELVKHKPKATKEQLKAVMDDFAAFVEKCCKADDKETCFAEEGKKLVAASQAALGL
Assay: Albumin binding affinity, competition scintillation proximity assay
Experimental: Streptavidin-SPA beads (GE Healthcare RPNQ0009) were incubated with biotinylated HSA for 5 hours. The beads were washed with buffer to remove unbound HSA. […] After 20 hours of gentle rocking at room temperature the plates were centrifuged and counted on a TopCounter.

**Q.** For `CC[C@H](C)[C@H](NC(=O)[C@H](Cc1ccccc1)NC(=O)[C@H](CCC(=O)O)NC(=O)[C@H](CCCNC(=N)N)NC(=O)[C@H](C)NC(=O)[C@H](C)NC(=O)[C@H](CCC(N)=O)NC(=O)CNC(=O)[C@H](CCC(=O)O)NC(=O)[C@H](CC(C)C)NC(=O)[C@H](Cc1ccc(O)cc1)NC(=O)[C@H](CO)NC(=O)[C@H](CO)NC(=O)[C@@H](NC(=O)[C@H](CC(=O)O)NC(=O)[C@H](CO)NC(=O)[C@@H](NC(=O)[C@H](Cc1ccccc1)NC(=O)[C@@H](NC(=O)CNC(=O)[C@H](CCC(=O)O)NC(=O)[C@H](C)NC(=O)CCc1c[nH]cn1)[C@@H](C)O)[C@@H](C)O)C(C)C)C(=O)N[C@@H](C)C(=O)N[C@@H](Cc1c[nH]c2ccccc12)C(=O)N[C@@H](CC(C)C)C(=O)N[C@H](C(=O)N[C@@H](CCCNC(=N)N)C(=O)NCC(=O)N[C@@H](CCCNC(=N)N)C(=O)N[C@@H](CCCCNC(=O)COCCOCCNC(=O)COCCOCCNC(=O)CC[C@H](NC(=O)C1CCN(C(=O)CCCCCCCCCCCCCCCCCCC(=O)O)CC1)C(=O)O)C(=O)O)C(C)C` [Example 60, N-epsilon37-(2-{2-[2-(2-{2-[2-((S)-4-Carboxy-4-{[1-(19-carboxynonadecanoyl)piperidine-4-carbonyl]amino}butyrylamino)ethoxy]ethoxy}acetylamino)ethoxy]ethoxy}acetyl) [DesaminoHis7,Arg26,Arg34,Lys37]GLP-1-(7-37)], which EC50 is on record?
**A.** The EC50 was 300 to 800 nM.

**Q.** How did the EC50 turn out when `CC[C@H](C)[C@H](NC(=O)[C@H](Cc1ccccc1)NC(=O)[C@H](CCC(=O)O)NC(=O)[C@H](CCCNC(=N)N)NC(=O)[C@H](C)NC(=O)[C@H](C)NC(=O)[C@H](CCC(N)=O)NC(=O)[C@H](CCC(=O)O)NC(=O)[C@H](CCC(=O)O)NC(=O)[C@H](CC(C)C)NC(=O)[C@H](Cc1ccc(O)cc1)NC(=O)[C@H](CO)NC(=O)[C@H](CO)NC(=O)[C@@H](NC(=O)[C@H](CC(=O)O)NC(=O)[C@H](CO)NC(=O)[C@@H](NC(=O)[C@H](Cc1ccccc1)NC(=O)[C@@H](NC(=O)CNC(=O)[C@H](CCC(=O)O)NC(=O)[C@H](C)NC(=O)CCc1c[nH]cn1)[C@@H](C)O)[C@@H](C)O)C(C)C)C(=O)N[C@@H](C)C(=O)N[C@@H](Cc1c[nH]c2ccccc12)C(=O)N[C@@H](CC(C)C)C(=O)N[C@H](C(=O)N[C@@H](CCCNC(=N)N)C(=O)NCC(=O)N[C@@H](CCCNC(=N)N)C(=O)N[C@@H](CCCCNC(=O)COCCOCCNC(=O)CC[C@H](NC(=O)CC[C@H](NC(=O)CCCCCCCCCCCNC(=O)CCCS(=O)(=O)NC(=O)CCCCCCCCCCCCCCCc1nnn(C(C)(C)C)n1)C(=O)O)C(=O)O)C(=O)O)C(C)C` [Example 64, N-epsilon37-{2-[2-(2-{(S)-4-[(S)-4-(12-{4-[16-(2-tert-Butyl-2H-tetrazol-5-yl)-hexadecanoylsulfamoyl]butyrylamino}dodecanoylamino)-4-carboxybutyrylamino]-4-carboxybutyrylamino}ethoxy)ethoxy]acetyl}[DesaminoHis7,Glu22,Arg26,Arg34,Lys37] GLP-1 (7-37)] was run?
**A.** Its EC50 is 1 to 100 nM.

**Q.** `CC[C@H](C)[C@H](NC(=O)[C@H](Cc1ccccc1)NC(=O)[C@H](CCC(=O)O)NC(=O)[C@H](CCCNC(=N)N)NC(=O)[C@H](C)NC(=O)[C@H](C)NC(=O)[C@H](CCC(N)=O)NC(=O)[C@H](CCC(=O)O)NC(=O)[C@H](CCC(=O)O)NC(=O)[C@H](CC(C)C)NC(=O)[C@H](Cc1ccc(O)cc1)NC(=O)[C@H](CO)NC(=O)[C@H](CO)NC(=O)[C@@H](NC(=O)[C@H](CC(=O)O)NC(=O)[C@H](CO)NC(=O)[C@@H](NC(=O)[C@H](Cc1ccccc1)NC(=O)[C@@H](NC(=O)CNC(=O)[C@H](CCC(=O)O)NC(=O)C(C)(C)NC(=O)[C@@H](N)Cc1c[nH]cn1)[C@@H](C)O)[C@@H](C)O)C(C)C)C(=O)N[C@@H](CCCCNC(=O)COCCOCCNC(=O)COCCOCCNC(=O)C[C@H](NC(=O)C1CCN(C(=O)CCCCCCCCCCCCCCCCCCC(=O)O)CC1)C(=O)O)C(=O)N[C@@H](Cc1c[nH]c2ccccc12)C(=O)N[C@@H](CC(C)C)C(=O)N[C@H](C(=O)N[C@@H](CCCCN)C(=O)NCC(=O)N[C@@H](CCCNC(=N)N)C(=O)NCC(=O)O)C(C)C` [Example 9, N-epsilon30{2-[2-(2-{2-[2-((S)-3-carboxy-3-{[1-(19-carboxynonadecanoyl)piperidine-4-carbonyl]amino}propionylamino)ethoxy]ethoxy}acetylamino)ethoxy]ethoxy}acetyl [Aib8,Glu22,Arg26,Lys30]GLP-1-(7-37)] was tested. Which EC50 did it give?
**A.** The EC50 was 150 to 300 nM.

**Q.** For `CC[C@H](C)[C@H](NC(=O)[C@H](Cc1ccccc1)NC(=O)[C@H](CCC(=O)O)NC(=O)[C@H](CCCCNC(=O)COCCOCCNC(=O)COCCOCCNC(=O)COCCOCCNC(=O)COCCOCCNC(=O)COCCOCCNC(=O)COCCOCCNC(=O)CC[C@H](NC(=O)CC[C@H](NC(=O)CCCCCCCCCCCNC(=O)CCCS(=O)(=O)NC(=O)CCCCCCCCCCCCCCCc1nnn[nH]1)C(=O)O)C(=O)O)NC(=O)[C@H](C)NC(=O)[C@H](C)NC(=O)[C@H](CCC(N)=O)NC(=O)CNC(=O)[C@H](CCC(=O)O)NC(=O)[C@H](CC(C)C)NC(=O)[C@H](Cc1ccc(O)cc1)NC(=O)[C@H](CO)NC(=O)[C@H](CO)NC(=O)[C@@H](NC(=O)[C@H](CC(=O)O)NC(=O)[C@H](CO)NC(=O)[C@@H](NC(=O)[C@H](Cc1ccccc1)NC(=O)[C@@H](NC(=O)CNC(=O)[C@H](CCC(=O)O)NC(=O)C(C)(C)NC(=O)[C@@H](N)Cc1c[nH]cn1)[C@@H](C)O)[C@@H](C)O)C(C)C)C(=O)N[C@@H](C)C(=O)N[C@@H](Cc1c[nH]c2ccccc12)C(=O)N[C@@H](CC(C)C)C(=O)N[C@H](C(=O)N[C@@H](CCCNC(=N)N)C(=O)NCC(=O)N[C@@H](CCCNC(=N)N)C(N)=O)C(C)C` [Example 45, N-epsilon26-[2-(2-{2-[2-(2-{2-[2-(2-{2-[2-(2-{2-[2-(2-{2-[2-(2-{2-[(S)-4-Carboxy-4-((S)-4-carboxy-4-{12-[4-(16-(1H-tetrazol-5-yl)hexadecanoylsulfamoyl)butyrylamino]dodecanoylamino}butyrylamino)butyrylamino]ethoxy}ethoxy)acetylamino]ethoxy}ethoxy)acetylamino]ethoxy}ethoxy)acetylamino]ethoxy}ethoxy)acetylamino]ethoxy}ethoxy)acetylamino]ethoxy}ethoxy)acetyl][Aib8,Lys26,Arg34]GLP-1-(7-36)amide], which EC50 is on record?
**A.** The EC50 was 100 to 150 nM.

**Q.** With `CC[C@H](C)[C@H](NC(=O)[C@H](Cc1ccccc1)NC(=O)[C@H](CCC(=O)O)NC(=O)[C@H](CCCNC(=N)N)NC(=O)[C@H](C)NC(=O)[C@H](C)NC(=O)[C@H](CCC(N)=O)NC(=O)[C@H](CCC(=O)O)NC(=O)[C@H](CCC(=O)O)NC(=O)[C@H](CC(C)C)NC(=O)[C@H](Cc1ccc(O)cc1)NC(=O)[C@H](CO)NC(=O)[C@H](CO)NC(=O)[C@@H](NC(=O)[C@H](CC(=O)O)NC(=O)[C@H](CO)NC(=O)[C@@H](NC(=O)[C@H](Cc1ccccc1)NC(=O)[C@@H](NC(=O)CNC(=O)[C@H](CCC(=O)O)NC(=O)[C@H](C)NC(=O)CCc1c[nH]cn1)[C@@H](C)O)[C@@H](C)O)C(C)C)C(=O)N[C@@H](C)C(=O)N[C@@H](Cc1c[nH]c2ccccc12)C(=O)N[C@@H](CC(C)C)C(=O)N[C@H](C(=O)N[C@@H](CCCNC(=N)N)C(=O)NCC(=O)N[C@@H](CCCNC(=N)N)C(=O)NCC(=O)N[C@@H](CCCCNC(=O)COCCOCCNC(=O)CC[C@H](NC(=O)CC[C@H](NC(=O)CCCCCCCCCCCNC(=O)CCCS(=O)(=O)NC(=O)CCCCCCCCCCCCCCCc1nnn[nH]1)C(=O)O)C(=O)O)C(N)=O)C(C)C` [Example 67, [ImPr^7,Arg^26,34,Glu^22]GLP-1-(7-37)Lys[2-(2-[2-((S)-4-((S)-4-(12-[4-(16-1H-tetrazol-5-ylhexadecanoylsulfamoyl)butyrylamino]dodecanoylamino)-4-carboxybutyrylamino)-4-carboxybutyrylamino)ethoxy]ethoxy)acetyl]-amid] (Desaminohistidyl-AEGTFTSDVSSYLEEQAAREFIAWLVRGRGK([AEEA-γGlu-γGlu-12Ado-X1])-NH2) as the molecule, how does the EC50 read?
**A.** Its EC50 is 1 to 100 nM.

**Q.** How did the EC50 turn out when `CC[C@H](C)[C@H](NC(=O)[C@H](Cc1ccccc1)NC(=O)[C@H](CCC(=O)O)NC(=O)[C@H](CCCCNC(=O)COCCOCCNC(=O)CC[C@H](NC(=O)CC[C@H](NC(=O)CCCCCNC(=O)CCCS(=O)(=O)NC(=O)CCCCCCCCCCCCCCCc1nnn[nH]1)C(=O)O)C(=O)O)NC(=O)[C@H](C)NC(=O)[C@H](C)NC(=O)[C@H](CCC(N)=O)NC(=O)CNC(=O)[C@H](CCC(=O)O)NC(=O)[C@H](CC(C)C)NC(=O)[C@H](Cc1ccc(O)cc1)NC(=O)[C@H](CO)NC(=O)[C@H](CO)NC(=O)[C@@H](NC(=O)[C@H](CC(=O)O)NC(=O)[C@H](CO)NC(=O)[C@@H](NC(=O)[C@H](Cc1ccccc1)NC(=O)[C@@H](NC(=O)CNC(=O)[C@H](CCC(=O)O)NC(=O)C(C)(C)NC(=O)[C@@H](N)Cc1c[nH]cn1)[C@@H](C)O)[C@@H](C)O)C(C)C)C(=O)N[C@@H](C)C(=O)N[C@@H](Cc1c[nH]c2ccccc12)C(=O)N[C@@H](CC(C)C)C(=O)N[C@H](C(=O)N[C@@H](CCCNC(=N)N)C(=O)NCC(=O)N[C@@H](CCCNC(=N)N)C(N)=O)C(C)C` [Example 41, N-epsilon26-[2-(2-{2-[(S)-4-Carboxy-4-((S)-4-carboxy-4-{6-[4-(16-(1H-tetrazol-5-yl)hexadecanoylsulfamoyl)butyrylamino]hexanoylamino}butyrylamino)butyrylamino]ethoxy}ethoxy)acetyl][Aib8,Arg34]GLP-1-(7-36)amide] was run?
**A.** Its EC50 is 150 to 300 nM.
